Source: patent US9028858B2 (Coloplast A/S, priority 2003, dated 2015)

Assay: Various stabilizers: degradation of H2O2 at pH 4, 5.5 and 7
Conditions: no stabilizer, 25 mM citric acid, approx. 1% H2O2
Experimental: Therefore the investigation of the influence of the pH-value on the stability in our system was included in the study.
24 different kinds of swelling media containing different stabilizers (one without stabilizer) and 3 different pH-values (pH 4, 5.5 and 7) were prepared. […] The concentration of sodium chloride in each of these three swelling media was 0.7% (w/w). Sodium chloride was tested because it could be used as an osmolality increasing agent. […] Two different kinds of material for the stick-pack were used, one with “peel” and one with “non-peel”. […] The irradiation dose was 2*26 kGy.
The stick-pack with “peel” was a laminated material consisting of PETP (12 μm), aluminium (9 μm) and polyethylene peel (polyethylene+10% polybutylene) (70 μm). […] The stick-packs were made out of a stamped area of 13×35 mm that was welded in the longitudinal direction by 1×3 units on a welder. It was welded by 2×2.2 units across in one end of the stick-pack, and in the other end by 4.0 bar, 130° C. and 3.5 s (breakable seal).
The stick-packs were stored for stability testing at 23° C. and 40° C. Samples were taken out after irradiation and after 2 and 4 weeks at 40° C. and 8 and 16 weeks at 23° C.

## OO [Std H2O2, hydrogen peroxide]
pH 4
  calculated amount of degraded H2O2 after 2 years of storage at 23° C.: 15.7%
pH 5.5
  calculated amount of degraded H2O2 after 2 years of storage at 23° C.: 31.7%
pH 7
  calculated amount of degraded H2O2 after 2 years of storage at 23° C.: 54.7%
